Literature values, collected in patent publication US20070092573A1, “STABILIZED EXTENDED RELEASE PHARMACEUTICAL COMPOSITIONS COMPRISING A BETA-ADRENORECEPTOR ANTAGONIST” (priority 2005, published 2007).

water solubility: highly water-soluble
SMILES: COCCc1ccc(OCC(O)CNC(C)C)cc1 (stereo not shown) [Metoprolol Succinate]
